Source: publication PMC7559746 (Pharmaceutics, 2020)
Values joined by “and” are separate entries in the source; they are usually repeats but may differ in a detail not shown here. Equal values may be shown once. Read-outs that look alike come from different tables or passages of the source. Blank lines part the entries; values can stand above or below the molecule they belong to.

Assays:
[1] = Toxicity in patients (CTCAE version 4.0, patient diaries) per study phase; format: in vivo, human
Excerpt: Toxicity was described as the incidence of toxicity per phase. This was corrected for baseline toxicity and was only taken into account in case of an increase in CTCAE grade per PK sampling day.

[2] = at clinically relevant doses; cited from earlier work
[3] = Sorafenib concentration in 3-mm skin biopsies of patients (LC-MS/MS); format: in vivo, human
Protocol: A 3-mm skin biopsy was obtained at days 1 and 15 of the study during PK sampling days for pharmacokinetic analysis. Skin biopsies were taken from either the forearm or the shoulder region, but always from the same region at the same timepoint in an individual patient during the two consecutive PK sampling days. If patients had HFSR lesions at the hand at the first PK day, an additional skin biopsy was performed from the thenar eminence region of the hand for pathologic analysis on days 1 and 15. The biopsies were graded according to the scoring for interface dermatitis as used for graft-versus-host disease by an experienced pathologist (J.D.).

[4] = set-up: method as in PMID 29065985; settings: cited from earlier work
clinical = settings: human, plasma, oral
Protocol: Patients were admitted to the hospital on days 1 and 15 of the study for pharmacokinetic blood sampling. […] Blood samples were processed into plasma within 30 min, by vortex mixing and centrifugation for 10 min at 2500× g at 4 °C. Plasma concentrations were determined using a validated liquid chromatography tandem mass spectrometry (LC-MS/MS) method [18], at both the laboratory of Translational Pharmacology in the Erasmus MC, Rotterdam, and the laboratory of Pharmaceutics and Pharmaceutical Chemistry, Ohio State University, OH.
The point estimates and CIs were transformed back to the original scale in order to give the point estimates for the ratio of the geometric means and the CIs. Tmax was analyzed by means of the Wilcoxon signed rank test and described with medians and interquartile ranges. Toxicity was described as the incidence of toxicity per phase. This was corrected for baseline toxicity and was only taken into account in case of an increase in CTCAE grade per PK sampling day.

[5] = plasma, relative difference of geometric means
[6] = plasma, sorafenib monotherapy (day 1)

Structure (SMILES): CCCN(CCC)S(=O)(=O)c1ccc(C(=O)O)cc1 [Probenecid, probenecid]
occurrence of HFSR, rash, anorexia, and fatigue ([1]; during probenecid administration (concomitant with sorafenib)): 65% | plasma concentrations achieved [2]: higher than 200 µM

Kp at 15 study day ([3]; human, skin and plasma, oral): 0.00147 | RD sorafenib monotherapy vs. sorafenib + probenecid (90% CI), sorafenib concentration in keratinocytes ([3]; skin biopsy): −28.1% (−46.3% to −3.7%) | decrease of sorafenib concentration in skin in the presence of probenecid ([3]; vs sorafenib alone, decrease): 28.1% | difference in sorafenib plasma AUC between patients with or without liver cirrhosis (90% CI: −32.9% to 30.7%, P = 0.73): −6.3% | difference in sorafenib plasma Ctrough between patients with or without liver cirrhosis (90% CI: −46.8% to 61.3%, P = 0.81): −7.4% | AUC(0-t) (human, plasma, oral): 33500 ng·h/mL | Cmax (human, plasma, oral, Cmax (CV%) geomean, plasma, sorafenib monotherapy (day 1)): 4460 ng/mL | Tmax (human, plasma, oral, Tmax (IQR) median, plasma, sorafenib monotherapy (day 1)): 3.7 h | RD sorafenib monotherapy vs. sorafenib + probenecid (90% CI), Cmax [5]: −25.1% (−44.3% to −19.7%) | RD sorafenib monotherapy vs. sorafenib + probenecid (90% CI), Ctrough [5]: −26.0% (−43.4% to −3.4%) | Ctrough (CV%) geomean [6]: 2125.5 (60) μg/mL | decrease of geometric mean plasma AUC0–12 h with concomitant probenecid (vs sorafenib alone, decrease): 27% and 26.8% | decrease of plasma Cmax with concomitant probenecid (vs sorafenib alone, decrease): 25.1% | decrease of plasma Ctrough with concomitant probenecid (vs sorafenib alone, decrease): 26.0% | Cmax (clinical): 3340 ng/mL | Tmax (clinical): 2.2 h | AUC(0-t) (clinical; 500 mg): 24500 ng·h/mL
Structure (SMILES): CNC(=O)c1cc(Oc2ccc(NC(=O)Nc3ccc(Cl)c(C(F)(F)F)c3)cc2)ccn1 [Sorafenib, sorafenib]
Anorexia, Grade 1–2, patients ([1]; N = 16 per phase): 4 | Constipation, Grade 1–2, patients ([1]; N = 16 per phase): 2 | Diarrhea, Grade 1–2, patients ([1]; N = 16 per phase): 1 | Fatigue, Grade 1–2, patients ([1]; N = 16 per phase): 2 | Fever, Grade 1–2, patients ([1]; N = 16 per phase): 1 | HFSR, Grade 1–2, patients ([1]; N = 16 per phase): 3 | Nausea, Grade 1–2, patients ([1]; N = 16 per phase): 1 | Oral mucositis, Grade 1–2, patients ([1]; N = 16 per phase): 1 | Pain, Grade 1–2, patients ([1]; N = 16 per phase): 1 | Pain, Grade 3, patients ([1]; N = 16 per phase): 1 | Rash, Grade 1–2, patients ([1]; N = 16 per phase): 1 | Vomiting, Grade 1–2, patients ([1]; N = 16 per phase): 0 | Serious adverse events (SAE) ([1]; N = 16 per phase, assumed not related to study drugs): 1 | occurrence of HFSR, rash, anorexia, and fatigue ([1]; during sorafenib monotherapy): 43% | patients in whom HFSR occurred ([1]; whole study): 10 of 16 patients | clinical incidence of HFSR ≥ grade 3 [4]: 20%

RD sorafenib monotherapy vs. sorafenib + probenecid (90% CI), AUC0–12 h [5]: −36.3% (−52.8% to −14.1%) | RD sorafenib monotherapy vs. sorafenib + probenecid (90% CI), Cmax [5]: −39.2% (−54.6% to −18.7%) | RD sorafenib monotherapy vs. sorafenib + probenecid (90% CI), Ctrough [5]: −35.2% (−59.7% to 4.3%) | Cmax (CV%) geomean [6]: 467.3 (77) μg/mL | Ctrough (CV%) geomean [6]: 271.1 (282) μg/mL | decrease of geometric mean plasma AUC0–12 h with concomitant probenecid (vs sorafenib alone, decrease): 36.3% | decrease of plasma Cmax with concomitant probenecid (vs sorafenib alone, decrease): 39.2%
Structure (SMILES): CNC(=O)c1cc(Oc2ccc(NC(=O)Nc3ccc(Cl)c(C(F)(F)F)c3)cc2)cc[n+]1[O-] [Sorafenib-N-oxide, sorafenib-N-oxide]
